Format in all cases: cell-based
For experiment [1], the system named is colorectal cancer cell line HCT116. Description: cells. Particulars: Homo sapiens. The protocol:
(§1) To confirm the in vitro growth inhibitory efficacy of the samples prepared in Examples 1 to 28 against human lung cancer and colorectal cancer cell lines, the experiments were performed as follows by applying the method described in the literature (Lee S K et al ([…]) Chem Biol Interact 115:215-28). A human lung cancer cell line A549 and a colorectal cancer cell line HCT116 were acquired from the American Type Culture Collection (ATCC, Manassas, Va., USA) and used.
(§2) A549, HCT116 cells were subcultured once or twice weekly under conditions of 37° C. and 5% CO2 using Roswell Park Memorial Institute (RPMI) Medium 1640 (RPMI 1640) containing 10% heat-inactivated Fetal Bovine Serum (FBS), 100 units/mL penicillin, 100 μg/mL streptomycin, and 250 ng/mL amphotericin B. All cells were thawed from liquid nitrogen, subcultured three times or more, and then used in the experiment.
(§3) The effects of the compounds obtained in Examples 1 to 28 on cell growth were measured by a sulforhodamine B (SRB) method (Lee et al (1998) Chem Biol Interact 115: 215-28).
(§4) Specifically, the human lung cancer and colon cancer cell lines used in the present invention were subcultured in a RPMI medium containing 10% FBS, 1% PSF, and the like, 10 μl of a sample dissolved in 10% DMSO and 190 μl (5×10^4 cells/ml) of the cell suspension were placed in each well of a 96-well plate. 190 μl of the cell suspension was placed in at least 16 wells, cultured for 30 minutes, and used as a negative control (zero-day control) before the experiment. The cultured cells were fixed with 10% trichloroacetic acid (TCA) and then stained with an SRB solution, the staining solution was dissolved with 10 mM Tris-base, and absorbance was measured at 515 nm. Using the cell culture in 10% DMSO as a control, cell viability according to the treatment with each test sample was measured using the following Equation 1. % Cell viability=(OD(sample)−OD(0-day))/(OD(10% DMSO)−OD(0-day))×100 [Equation 1]
(§5) When the control in which the sample was not treated was defined as 100%, the value of the sample treatment group was shown as a percentage with respect to the control, and each test sample treatment was determined by the mean value±SEM of the duplicate or triplicate test. The IC50 value is the concentration of the test sample for 50% viability.

In experiment [2] the test system is human lung cancer cell line A549. As to the kind of experiment: cells. Particulars: Homo sapiens. The protocol: as §1, §2, §3, §4, §5
Experiment [3] deals with human lung cancer and colorectal cancer cell lines. As to the kind of experiment: In vitro growth inhibition (SRB), summary over both cell lines. The conditions noted are these: compared with control compound etoposide. The protocol:
as §1, §2, §3, §4, §5

[4] abbreviates: HCT-116, read-out: HCT116-LC50, Table 2, SRB, concentration for 50% viability.
Setting [5] is: A549, read-out: A549-LC50, Table 2, SRB, concentration for 50% viability.

We go through six compounds from US11629123B2, “Selenopsammaplin A and derivative thereof, preparation method therefor, and composition for preventing and treating cancer, containing same as active ingredients” (priority 2017, dated 2023).

“Also recorded” adds a separate entry of the source. Like-named read-outs stand apart in the source and are kept apart here.

Regarding `O=C(NCC[Se][Se]CCNC(=O)/C(Cc1ccc(O)c(F)c1)=N/O)/C(Cc1ccc(O)c(F)c1)=N/O` [SSM-3, (2E,2′E)-N,N′-(diselanediylbis(ethane-2,1-diyl))bis(3-(3-fluoro-4-hydroxyphenyl)-2-(hydroxyimino)propanamide)], the CC50 turned out to be 50 nM in experiment [1] (setting [4]) and 60 nM in experiment [2] (setting [5]). The “cancer cell growth inhibitory activity compared to etoposide” value in experiment [3] was “higher inhibitory activity than a control compound etoposide; also recorded: excellent cancer cell growth inhibitory potential even compared to etoposide”.
For the compound `O=C(NCC[Se][Se]CCNC(=O)/C(Cc1ccccc1)=N/O)/C(Cc1ccccc1)=N/O` [SSM-4, (2E,2′E)-N,N′-(diselanediylbis(ethane-2,1-diyl))bis(2-(hydroxyimino)-3-phenylpropanamide)], the CC50 was determined as 90 nM in experiment [1] (HCT-116, read-out: HCT116-LC50) and 80 nM in experiment [2] (A549, read-out: A549-LC50). Besides, the “cancer cell growth inhibitory activity compared to etoposide” value in experiment [3] is recorded as “higher inhibitory activity than a control compound etoposide; also recorded: excellent cancer cell growth inhibitory potential even compared to etoposide”.
`O=C(NCC[Se][Se]CCNC(=O)/C(Cc1ccc([N+](=O)[O-])cc1)=N/O)/C(Cc1ccc([N+](=O)[O-])cc1)=N/O` [SSM-12, (2E,2′E)-N,N′-(diselanediylbis(ethane-2,1-diyl))bis(2-(hydroxyimino)-3-(4-nitrophenyl)propanamide)]: the CC50 in experiment [1] (HCT-116, read-out: HCT116-LC50) turned out to be 90 nM; in experiment [2] (A549, read-out: A549-LC50), 90 nM. In experiment [3], the “cancer cell growth inhibitory activity compared to etoposide” value is “higher inhibitory activity than a control compound etoposide; also recorded: excellent cancer cell growth inhibitory potential even compared to etoposide”.
For the compound `CCOc1ccc(C/C(=N\O)C(=O)NCC[Se][Se]CCNC(=O)/C(Cc2ccc(OCC)cc2)=N/O)cc1` [SSM-10, (2E,2′E)-N,N′-(diselanediylbis(ethane-2,1-diyl))bis(3-(4-ethoxyphenyl)-2-(hydroxyimino)propanamide)], the values for the CC50 in experiment [1] (setting [4]) and in experiment [2] (setting [5]) were 70 nM and 50 nM, respectively. Also, in experiment [3], the “cancer cell growth inhibitory activity compared to etoposide” value is reported as “higher inhibitory activity than a control compound etoposide; also recorded: excellent cancer cell growth inhibitory potential even compared to etoposide”.
In the case of `O=C(NCC[Se][Se]CCNC(=O)/C(Cc1ccc(O)c(Cl)c1)=N/O)/C(Cc1ccc(O)c(Cl)c1)=N/O` [SSM-2, (2E,2′E)-N,N′-(diselanediylbis(ethane-2,1-diyl))bis(3-(3-chloro-4-hydroxyphenyl)-2-(hydroxyimino)propanamide)], the CC50 stood at 20 nM in experiment [1] (setting [4]) and 50 nM in experiment [2] (setting [5]). In addition, in experiment [3], the “cancer cell growth inhibitory activity compared to etoposide” value is given as “higher inhibitory activity than a control compound etoposide; also recorded: excellent cancer cell growth inhibitory potential even compared to etoposide”.
In the same order, the values of `O=C(NCC[Se][Se]CCNC(=O)/C(Cc1ccc(O)c(Br)c1)=N/O)/C(Cc1ccc(O)c(Br)c1)=N/O` [SSM-1, (2E,2′E)-N,N′-(diselanediylbis(ethane-2,1-diyl))bis(3-(3-bromo-4-hydroxyphenyl)-2-(hydroxyimino)propanamide)] are 10 nM, 30 nM and “higher inhibitory activity than a control compound etoposide; also recorded: excellent cancer cell growth inhibitory potential even compared to etoposide”.
